# Test system: chronic relapsing EAE model of mouse
# Format: in vivo
# Experimental: Compound A was selected as a test substance, and salazosulfapyridine (hereinafter referred to as SASP) was selected as a comparative control agent. Compound A was administered at a dose of 30 mg/kg (Compound A group). SASP was administered at a dose of 300 mg/kg (SASP group). In control group and normal group (no induction treatment group), 0.5% methyl cellulose aqueous solution used as vehicle of the administration liquid was administered.
# The chronic relapsing EAE was induced in SJL/J female mice by immunization with partial PLP peptide. Briefly, an emulsion was prepared by mixing equivalent volumes of phosphate buffer saline containing 1 mg/mL of the peptide corresponding to residues 139-151 of the PLP and Freund's […] adjuvant containing 4 mg/mL of killed M. Tuberculosis H37Ra. The emulsion was intradermically injected (50 μg of PLP per mouse) into four positions on the back for immunization, and additionally, on the day of the immunization and two days after, pertussis toxin was intraperitoneally injected in each amount of 150 ng per mouse, twice in total. The vehicle, the test substance or the reference article was orally administered continuously for 44 days once daily from the day of the immunization.
# In the present experiment, paralysis was developed to reach a peak on the 14th to 16th day after the immunization, and the symptom remitted once, but relapsed to reach a peak on the 38th day.
# The symptom was evaluated in accordance with a report of Weaver et al. (FASEB Journal, 2005, vol. 19, p. 1668). Briefly, paralysis of all of the four limbs and the tail was evaluated by scoring in 4 ranks of scores of 0 to 3 and in 3 ranks of scores of 0 to 2, respectively, and the sum of the scores was determined as EAE score (the maximum score 14).
# Incidence rates (the number of mice having developed the disease/the number of used mice) and the average of EAE score of each group were measured at the period of initial onset (on the 15th day after the immunization) and at the period of relapse (on the 38th day after the immunization).
smiles,measurement,setting,value
"CS(=O)(=O)Nc1cc2occ(NC=O)c(=O)c2cc1Oc1ccccc1 [Compound A, N-[7-[(methylsulfonyl)amino]-4-oxo-6-phenoxy-4H-1-benzopyran-3-yl]formamide]","EAE score, period of initial onset","15th day after immunization, average, maximum score 14, oral once daily (Compound A 30 mg/kg, SASP 300 mg/kg)",1.4
same,"Incidence rate, period of initial onset","15th day after immunization, mice having developed the disease/mice used, oral once daily from immunization (Compound A 30 mg/kg, SASP 300 mg/kg)",1/8
same,"EAE score, period of relapse","38th day after immunization, average, maximum score 14, oral once daily (Compound A 30 mg/kg, SASP 300 mg/kg)",0.3
same,"Incidence rate, period of relapse","38th day after immunization, mice having developed the disease/mice used, oral once daily (Compound A 30 mg/kg, SASP 300 mg/kg)",2/8
same,"Effect on incidence rate / EAE score, paralysis of chronic relapsing EAE","oral once daily for 44 days from immunization (Compound A 30 mg/kg, SASP 300 mg/kg)",suppressed the occurrence of paralysis

# Reference: patent publication US9918963B2, “Therapeutic agent for disease based on inhibitory effect of macrophage migration inhibitory factor” (TOYAMA CHEMICAL CO., LTD., priority 2013, dated 2018)
